For the data set, the system named is Hepatotoxicity. As to the kind of experiment: Human drug-induced liver injury (DILI) modelling dataset from Ekins et al.

Starred links: 1 amine or outer side, 2 acyl side, 3 side chain; linkers in the order of their positions; H or OH if unused. Positions of bridges follow the written chain, without caps; N, C: chain ends. Non-standard residues stand in square brackets, D forms with d. Residues, ends and D or L forms follow the SMILES beside them. Chains are numbered I, II in the order given. Actinocin(9to1) = Cc1c2oc3c(C)ccc(C(=O)[*:1])c3nc-2c(C(=O)[*:2])c(N)c1=O; NMeV = CN[C@H](C(=O)O)C(C)C; Sar = CNCC(=O)O

These results are taken from ChEMBL document CHEMBL1697723, “A predictive ligand-based Bayesian model for human drug-induced liver injury” (Drug Metab Dispos, 2010).

As for `CC(C)COCC(CN(Cc1ccccc1)c1ccccc1)N1CCCC1.Cl.O` (stereo not drawn) [BEPRIDIL HYDROCHLORIDE], the Hepatotoxicity entry is “DILI positive (training set)”. Turning to `CC(O)(CS(=O)(=O)c1ccc(F)cc1)C(=O)Nc1ccc(C#N)c(C(F)(F)F)c1` (stereo not drawn) [BICALUTAMIDE], the Hepatotoxicity result is “DILI positive (training set)”. For the compound `CN(C)CCCN1c2ccccc2Sc2ccc(Cl)cc21` [CHLORPROMAZINE], the Hepatotoxicity result was “DILI positive (training set)”. `C=C1[C@@H]2CCC3[C@@](CC[C@@H]4[C@H](C(=O)O)C[C@@H](O[C@@H]5O[C@H](CO)[C@@H](OS(=O)(=O)[O-])[C@H](OS(=O)(=O)[O-])[C@H]5OC(=O)CC(C)C)C[C@@]34C)(C2)[C@@H]1O.[K+].[K+]` (stereo partly drawn) [ATRACTYLOSIDE]: the Hepatotoxicity result is given as “DILI positive (training set)”. Regarding `CN[C@@H](C)[C@@H](O)c1ccccc1.Cl` [PSEUDOEPHEDRINE HYDROCHLORIDE], the Hepatotoxicity result was “DILI negative (training set)”. Turning to `Nc1nc(=O)c2c([nH]1)NCC(CNc1ccc(C(=O)N[C@@H](CCC(=O)[O-])C(=O)[O-])cc1)N2C=O.[Ca+2]` (stereo partly drawn) [LEUCOVORIN CALCIUM], the Hepatotoxicity result is recorded as “DILI negative (test set)”.

On to `CCC(=O)O[C@H]1[C@H](O[C@@H]2[C@@H](C)[C@H](O[C@H]3C[C@@](C)(OC)[C@@H](O)[C@H](C)O3)[C@@H](C)C(=O)O[C@H](CC)[C@@](C)(O)[C@H](O)[C@@H](C)C(=O)[C@H](C)C[C@@]2(C)O)O[C@H](C)C[C@@H]1N(C)C.CCCCCCCCCCCCOS(=O)(=O)O` [ERYTHROMYCIN ESTOLATE], for which the Hepatotoxicity entry was “DILI positive (training set)”. Consider `C[C@@H]1C[C@H]2[C@@H]3CCC4=CC(=O)C=C[C@]4(C)[C@@]3(Cl)[C@@H](O)C[C@]2(C)[C@@]1(OC(=O)c1ccco1)C(=O)CCl` [MOMETASONE FUROATE], for which the Hepatotoxicity entry is recorded as “DILI negative (test set)”. For the compound `Cc1c(F)c(N2CCNC(C)C2)cc2c1c(=O)c(C(=O)O)cn2C1CC1` (stereo not drawn) [GREPAFLOXACIN], for the setting “Liver”, the Hepatotoxicity result is on record as “DILI positive (test set)”. Consider `C[C@@H]1[C@H](O)[C@@H](C)/C=C/C=C/C=C/C=C/C=C/C=C/C=C/[C@H](O[C@@H]2O[C@H](C)[C@@H](O)[C@H](N)[C@@H]2O)C[C@@H]2O[C@](O)(C[C@@H](O)C[C@@H](O)[C@H](O)CC[C@@H](O)C[C@@H](O)CC(=O)O[C@H]1C)C[C@H](O)[C@H]2C(=O)O` [AMPHOTERICIN B], for which the Hepatotoxicity entry is “DILI negative (test set)”. In the case of `CC(C)NCC(O)COc1ccc(CC(N)=O)cc1` (stereo not drawn) [ATENOLOL], the Hepatotoxicity result (Liver) is listed as “DILI negative (training set)”. On to `CC(NC(C)(C)C)C(=O)c1cccc(Cl)c1.Cl` (stereo not drawn) [BUPROPION HYDROCHLORIDE], for which the Hepatotoxicity entry was “DILI negative (training set)”. For `Cn1cnc([N+](=O)[O-])c1Sc1ncnc2nc[nH]c12` [AZATHIOPRINE], for the setting “Liver”, the Hepatotoxicity entry is recorded as “DILI positive (training set)”.

For the compound `COCCCC/C(=N\OCCN)c1ccc(C(F)(F)F)cc1` [FLUVOXAMINE], the Hepatotoxicity result is reported as “DILI positive (training set)”.

Consider `CCCCNc1cc(C(=O)O)cc(S(N)(=O)=O)c1Oc1ccccc1` [BUMETANIDE], for which the Hepatotoxicity entry is on record as “DILI positive (training set)”. For `C=C[C@H]1C[N@@]2CC[C@H]1C[C@@H]2[C@@H](O)c1ccnc2ccc(OC)cc12` [QUINIDINE], the Hepatotoxicity result is listed as “DILI positive (training set)”. With `[N-]=[N+]=CC(=O)OC[C@H](N)C(=O)O` [AZASERINE], the Hepatotoxicity result is given as “DILI positive (training set)”.

Consider `C[C@H](CCC(=O)O)[C@H]1CC[C@H]2[C@@H]3[C@H](O)C[C@@H]4C[C@H](O)CC[C@]4(C)[C@H]3CC[C@]12C` [CHENODIOL], for which the Hepatotoxicity result was “DILI positive (training set)”. On to `Cc1c2oc3c(C)ccc(C(=O)N[C@@H]4C(=O)N[C@H](C(C)C)C(=O)N5CCC[C@H]5C(=O)N(C)CC(=O)N(C)[C@@H](C(C)C)C(=O)O[C@@H]4C)c3nc-2c(C(=O)N[C@@H]2C(=O)N[C@H](C(C)C)C(=O)N3CCC[C@H]3C(=O)N(C)CC(=O)N(C)[C@@H](C(C)C)C(=O)O[C@@H]2C)c(N)c1=O` [DACTINOMYCIN] (I: T[dV]P[Sar][NMeV] / II: T[dV]P[Sar][NMeV]; ester I:1-I:C, II:1-II:C; linker I:N-II:N via Actinocin(9to1)), for which the Hepatotoxicity result is recorded as “DILI positive (test set)”. As for `C[C@H](CCC(=O)O)[C@H]1CC[C@H]2[C@@H]3[C@@H](O)C[C@@H]4C[C@H](O)CC[C@]4(C)[C@H]3CC[C@]12C` [URSODIOL], the Hepatotoxicity entry is listed as “DILI negative (training set)”. Still for that read-out and setting: the entry for `O[C@H]1[C@H](O)[C@@H](O)[C@H](O)[C@@H](O)[C@H]1O` [INOSITOL] is “DILI negative (test set)”. With `Cl.N=C(N)NC(=O)c1nc(Cl)c(N)nc1N.O.O` [AMILORIDE HYDROCHLORIDE], the Hepatotoxicity result is on record as “DILI negative (training set)”.

Take `COc1ccc2[nH]cc(CCNC(C)=O)c2c1` [MELATONIN]: the Hepatotoxicity result was “DILI negative (training set)”. Still for that read-out and setting: to `COc1cc(NS(C)(=O)=O)ccc1Nc1c2ccccc2nc2ccccc12.Cl` [AMSACRINE HYDROCHLORIDE] belongs “DILI positive (training set)”. As for `O=C(O)CCc1nc(-c2ccccc2)c(-c2ccccc2)o1` [OXAPROZIN], the Hepatotoxicity result is listed as “DILI positive (test set)”.

Consider `CC(C)(C)c1ccc(C(O)CCCN2CCC(C(O)(c3ccccc3)c3ccccc3)CC2)cc1` (stereo not drawn) [TERFENADINE], for which the Hepatotoxicity result was “DILI negative (training set)”. As to `CC(C)OC(=O)C(C)(C)Oc1ccc(C(=O)c2ccc(Cl)cc2)cc1` [FENOFIBRATE], the Hepatotoxicity result is “DILI positive (training set)”.

Consider `CC(C)(C)NCC(O)COc1cccc2c1CC(O)C(O)C2` (stereo not drawn) [NADOLOL], for which the Hepatotoxicity result was “DILI negative (training set)”. The same measure, in the same setting: to `CCn1cc(C(=O)O)c(=O)c2ccc(C)nc21` [NALIDIXIC ACID] belongs “DILI positive (training set)”. Still for that read-out and setting: to `CO[C@@]1(NC(=O)Cc2cccs2)C(=O)N2C(C(=O)O)=C(COC(N)=O)CS[C@@H]21` [CEFOXITIN] belongs “DILI positive (test set)”. For `Cc1ccc(C(=O)c2cc(O)c(O)c([N+](=O)[O-])c2)cc1` [TOLCAPONE], the Hepatotoxicity result (Liver) is reported as “DILI positive (test set)”. As to `Nc1ncnc2c1ncn2[C@@H]1O[C@H](CO)[C@@H](O)[C@@H]1O` [VIDARABINE], the Hepatotoxicity entry was “DILI negative (training set)”. `CO[C@@]1(NC(=O)C2SC(=C(C(N)=O)C(=O)O)S2)C(=O)N2C(C(=O)O)=C(CSc3nnnn3C)CS[C@@H]21` (stereo partly drawn) [CEFOTETAN]: the Hepatotoxicity entry is recorded as “DILI negative (test set)”. Take `CCN(CC)CCNC(=O)c1cc(Cl)c(N)cc1OC.Cl`: the Hepatotoxicity entry was “DILI positive (training set)”.

With `COc1cc(CNC(=O)CCCC/C=C/C(C)C)ccc1O` [CAPSAICIN], the Hepatotoxicity entry was “DILI negative (test set)”. On the same count and under the same terms, to `COc1ccc2c(c1)c(CC(=O)O)c(C)n2C(=O)c1ccc(Cl)cc1` [INDOMETHACIN] belongs “DILI positive (training set)”. As for `CCCCNc1ccc(C(=O)OCCN(C)C)cc1.Cl` [TETRACAINE HYDROCHLORIDE], the Hepatotoxicity result is reported as “DILI negative (training set)”. `CCCCc1oc2ccccc2c1C(=O)c1cc(I)c(OCCN(CC)CC)c(I)c1` [AMIODARONE]: for the setting “Liver”, the Hepatotoxicity result is recorded as “DILI positive (training set)”. For the compound `CC1(COc2ccc(CC3SC(=O)NC3=O)cc2)CCCCC1` (stereo not drawn) [CIGLITAZONE], the Hepatotoxicity entry is “DILI positive (test set)”. Regarding `O=c1[nH]cnc2c1ncn2[C@H]1CC[C@@H](CO)O1` [DIDANOSINE], the Hepatotoxicity result was “DILI positive (training set)”.

For `COc1ccc(CCN2CCC(Nc3nc4ccccc4n3Cc3ccc(F)cc3)CC2)cc1` [ASTEMIZOLE], the Hepatotoxicity entry is on record as “DILI negative (training set)”. In the case of `C[N+](C)(C)CCOP(=O)(O)OP(=O)([O-])OC[C@H]1O[C@@H](n2ccc(N)nc2=O)[C@H](O)[C@@H]1O` [CITICOLINE], the Hepatotoxicity entry was “DILI negative (test set)”. In the case of `CN(C)CCCC1(c2ccc(F)cc2)OCc2cc(C#N)ccc21` (stereo not drawn) [CITALOPRAM], the Hepatotoxicity entry was “DILI negative (training set)”. As for `CN(C)[C@@H]1C(O)=C(C(N)=O)C(=O)[C@@]2(O)C(O)=C3C(=O)c4c(O)cccc4[C@@](C)(O)[C@H]3C[C@@H]12` [TETRACYCLINE], the Hepatotoxicity entry was “DILI positive (training set)”. In the case of `O=c1[nH]c(=O)n([C@H]2C[C@H](O)[C@@H](CO)O2)cc1I` [IDOXURIDINE], the Hepatotoxicity result was “DILI positive (training set)”. With `COc1c(N2CCNC(C)C2)c(F)cc2c(=O)c(C(=O)O)cn(C3CC3)c12` (stereo not drawn) [GATIFLOXACIN], the Hepatotoxicity result is on record as “DILI negative (training set)”. Same read-out and setting: to `COCc1c(C(C)C)nc(C(C)C)c(/C=C/[C@@H](O)C[C@@H](O)CC(=O)O)c1-c1ccc(F)cc1` [CERIVASTATIN] belongs “DILI positive (test set)”; to `C=C[C@H]1CN2CC[C@H]1C[C@H]2[C@H](O)c1ccnc2ccc(OC)cc12.C=C[C@H]1CN2CC[C@H]1C[C@H]2[C@H](O)c1ccnc2ccc(OC)cc12.O.O.O=S(=O)(O)O` [QUININE SULFATE], “DILI positive (test set)”. For the compound `CC[C@@]1(O)C[C@H](O[C@H]2C[C@H](N(C)C)[C@H](O[C@H]3C[C@H](O)[C@H](O[C@H]4CCC(=O)[C@H](C)O4)[C@H](C)O3)[C@H](C)O2)c2c(cc3c(c2O)C(=O)c2c(O)cccc2C3=O)[C@H]1C(=O)OC.Cl` [ACLARUBICIN HYDROCHLORIDE], the Hepatotoxicity entry was “DILI negative (test set)”. For `CN(Cc1cnc2nc(N)nc(N)c2n1)c1ccc(C(=O)N[C@@H](CCC(=O)O)C(=O)O)cc1` [METHOTREXATE], the Hepatotoxicity result is on record as “DILI positive (training set)”. With `C[C@H]1COc2c(N3CCN(C)CC3)c(F)cc3c(=O)c(C(=O)O)cn1c23.C[C@H]1COc2c(N3CCN(C)CC3)c(F)cc3c(=O)c(C(=O)O)cn1c23.O` [LEVOFLOXACIN], the Hepatotoxicity result was “DILI negative (training set)”. Still for that read-out and setting: the entry for `CCO.C[C@H]1c2cccc(O)c2C(=O)C2=C(O)[C@]3(O)C(=O)C(C(N)=O)=C(O)[C@@H](N(C)C)[C@@H]3[C@@H](O)[C@@H]21.Cl.O` is “DILI positive (training set)”; for `C#C[C@]1(OC(C)=O)CC[C@H]2[C@@H]3CCC4=C[C@@H](OC(C)=O)CC[C@@H]4[C@H]3CC[C@@]21C` [ETHYNODIOL DIACETATE] it is “DILI positive (training set)”.
